# Assay results taken from patent US9809557B2 (priority 2011, dated 2017).
# Where “and” joins values, the source holds several entries; their conditions need not be identical. Identical values can stand only once.
# Columns and labels:
# [1] = Hydrolysis of the prodrugs in 80% human plasma; assay type: in vitro ADME; conditions: for half-life: read-out: t1/2 in plasma
# Experimental: At 37±0.5° C., the hydrolysis rate of the prodrugs was measured in 80% human plasma. An appropriate aliquot (20-100 μL) of 1 mg/ml prodrug solution in methanol was transferred to 5.0 ml of preheated plasma. At appropriate time intervals, 300 μl sample aliquots were withdrawn and transferred to 600 μl acetonitrile and mixed thoroughly. After centrifugation at 13500 rpm for 5 min, the supernatant was analyzed by HPLC for parent drug and remaining prodrug.
# [2] = Solubility of the prodrugs in PBS (67 mM phosphate buffer pH 7.4); conditions: for solubility thermodynamic: 67 mM phosphate buffer pH 7.4 (PBS), 37 °C; for Sprodrug ± SD: PBS (67 mM phosphate buffer pH 7.4), 37° C.
# Experimental: The determination of the solubility of a prodrug at different pH values of interest according to the present invention is carried by adding excess solid prodrug to a container containing a buffer solution with well-defined pH. The mixture is rotated at constant temperature until an equilibrium between solid prodrug and prodrug in solution has established (that is until the prodrug concentration in the supernatant remains constant). At each measurement the pH of the supernatant is controlled and, if needed, adjusted to the desired pH.
# Suspensions of the prodrugs in 67 mM phosphate buffer pH 7.4 (PBS) were prepared by adding 10 mL PBS to approximately 5 mg prodrug. The suspensions were kept unstirred at 37° C. in an incubator hood. At appropriate time intervals over 23 days, about 500 μL samples were taken and after filtration (disposable syringe filters), the solutions were analyzed immediately by HPLC for parent drug and remaining prodrug. Quantitation of parent drug and prodrug was done from peak area measurements in relations to those of standards analysed by HPLC at the same conditions. […] For the diclofenac and ibuprofen prodrugs, the following method was used: Merck Hitachi L 6000 pump connected to Merck Hitachi 4250 UV detector. Reversed phase chromatography was performed using a C18 Gemini® RP column (150×4.6 mm, 5 μm particles) (Phenomenex, Torrance, Calif., USA) equipped with a SecurityGuard precolumn (Phenomenex, Torrance, Calif., USA). The flow rate was set at 1 mL/min and the column effluent was monitored at 230 nm. The mobile phase consisted of 35% (v/v) acetonitrile and 65% (v/v) of 0.1% (v/v) phosphoric acid pH 3.2. The retention times varied in the range of 3 to 30 min.
# From the observed relatively stable concentration of dissolved prodrugs measured in the suspensions after 8-9 day up to 23 days, the solubilities of the prodrugs (Sprodrug) were determined.
# [3] = Stability (cleavage to parent drug) of prodrug suspensions in PBS pH 7.4; assay type: physicochemical; conditions: for half-life at 0.5 mg/mL: 67 mM phosphate buffer (PBS), PBS pH 7.4, 37° C., read-out: t1/2 in PBS (converted); for apparent pseudo-zero-order rate constant k0: appearance of parent drug in PBS pH 7.4 suspension, 37° C.; for estimated pseudo first-order rate constant khyd: cleavage of prodrug in PBS pH 7.4, 37° C., calculated from k0 and Sprodrug
# Experimental: Suspensions of the prodrugs in 67 mM phosphate buffer pH 7.4 (PBS) were prepared by adding 10 mL PBS to approximately 5 mg prodrug. The suspensions were kept unstirred at 37° C. in an incubator hood. At appropriate time intervals over 23 days, about 500 μL samples were taken and after filtration (disposable syringe filters), the solutions were analyzed immediately by HPLC for parent drug and remaining prodrug. Quantitation of parent drug and prodrug was done from peak area measurements in relations to those of standards analysed by HPLC at the same conditions.
# From the observed relatively stable concentration of dissolved prodrugs measured in the suspensions after 8-9 day up to 23 days, the solubilities of the prodrugs (Sprodrug) were determined. In this time interval, the rate of appearance of parent drug was determined and an apparent pseudo-zero-order rate constant (k0) was obtained. By assuming that the dissolution rates were much faster than the conversion of the prodrugs to the parent drug, pseudo first-order rate constants (khyd) for cleavage of the prodrugs were calculated according to:
# [4] = Solubility at acidic pH, with and without DMA cosolvent; assay type: physicochemical
# Experimental: A suspension of DPX-2-0007 (as hydrochloride salt) was formed by adding 30 mg to 4 mL demineralized water. After rotation of the suspension at 37° C. for 3 days, 1.0 mL sample was taken and after filtration (disposable syringe filters), the solution was diluted in methanol:water 1:1 and analyzed immediately by HPLC for prodrug. […] The pH in the solution was measured to 3.40. The following HPLC method was used: Merck Hitachi L 6200 pump connected to Merck Hitachi 4250 UV detector. Reversed phase chromatography was performed using a RP 18 Symmetry Shields® column (150×4.6 mm, 5 μm particles) equipped with a SecurityGuard precolumn (Phenomenex, Torrance, Calif., USA). […] The retention time of naproxen and DPX-2-0007 were 19 and 5.8 min, respectively.
# A suspension of DPX-2-0006 was formed by adding 10 mg to 3 mL demineralized water, 0.05 mL 0.100 M HCl was added to obtain a pH of 3. After rotation of the suspension at 37° C. for 1 days, 0.5 mL sample was taken and after filtration (disposable syringe filters), the solution was diluted in methanol:water 1:1 and analyzed immediately by HPLC for prodrug. […] The HPLC method described in Example 29 was applied and the retention time of DPX-2-0006 was 14 min, respectively. N,N-dimethylacetamide (DMA) was added stepwise to the acidic suspension of DPX-2-0006 and the amount of DPX-2-000 dissolved in the presence of various volumes of DMA was determined after 1-3 days rotation at 37° C. as described above.
# [5] = Precipitation on addition of acidic prodrug solution to phosphate buffer pH 7.4; assay type: physicochemical; conditions: 1.0 mL aqueous solution pH 3.4 added to 1.0 mL 67 mM phosphate buffer pH 7.4
# Experimental: At appropriate time intervals, samples were withdrawn and centrifuged for 5 min at 13,000 rpm and the supernatant was analysed by HPLC for DPX-4-0001 and formed ketorolac. The HPLC method described in Example 26 was applied. […] A slight increase in the ketorolac concentration is the result of pH dependent hydrolysis of the prodrug bond (FIG. 3).
# The pH in the suspension was measured to 7.0.
# pKa value = assay type: physicochemical
# [6] = hydrolysis in 80% human plasma at 37° C.
# [7] = pH 7.4, aqueous buffer, thermodynamic from solid
Structure (SMILES),"half-life [1, 6]","solubility thermodynamic [2, 7]",Sprodrug ± SD [2],half-life at 0.5 mg/mL [3],apparent pseudo-zero-order rate constant k0 [3],estimated pseudo first-order rate constant khyd [3],further results
COc1ccc2cc(C(C)C(=O)OCCn3ccnc3)ccc2c1 (stereo not drawn),64 min,146 ± 5 µg/mL,0.45 ± 0.02 mM,–,–,–,–
"CN(C)c1ccc(CCOC(=O)Cc2ccccc2Nc2c(Cl)cccc2Cl)cc1 [DPX-1-0001, 4-(dimethylamino)phenethyl 2-(2-(2,6-dichlorophenylamino)phenyl)acetate]",–,0.01 µg/mL,2e-05 mM,–,–,–,–
"CN(CCOC(=O)Cc1ccccc1Nc1c(Cl)cccc1Cl)c1ccccc1 [DPX-1-0002, 2-(methyl(phenyl)amino)ethyl 2-(2-(2,6-dichlorophenylamino)phenyl)acetate]",–,< 0.1 µg/mL,<0.0002 mM,–,–,–,–
"O=C(Cc1ccccc1Nc1c(Cl)cccc1Cl)OCCc1ccccn1 [DPX-1-0004, 2-(pyridin-2-yl)ethyl 2-(2-((2,6-dichlorophenyl)amino)phenyl)acetate]",25 min,3 ± 1 µg/mL,0.007 ± 0.001 mM,5 days,1.1e-06 M/day,0.15 day⁻¹,–
"O=C(Cc1ccccc1Nc1c(Cl)cccc1Cl)OCCn1ccnc1 [DPX-1-0005, 2-(1H-imidazol-1-yl)ethyl 2-(2-(2,6-dichlorophenylamino)phenyl)acetate]",–,1 µg/mL,0.003 mM,–,–,–,–
"O=C(Cc1ccccc1Nc1c(Cl)cccc1Cl)OCCn1cnc2ccccc21 [DPX-1-0006, 2-(1H-benzo[d]imidazol-1-yl)ethyl 2-(2-((2,6-dichlorophenyl)amino)phenyl)acetate]",3 min,7 ± 2 µg/mL,0.015 ± 0.004 mM,4 days,2.4e-06 M/day,0.17 day⁻¹,–
"O=C(Cc1ccccc1Nc1c(Cl)cccc1Cl)OCCn1ccnc1-c1ccccc1 [DPX-1-0007, 2-(2-phenyl-1H-imidazol-1-yl)ethyl 2-(2-((2,6-dichlorophenyl)amino)phenyl)acetate]",49 min,43 ± 2 µg/mL,0.086 ± 0.003 mM,242 days,2.5e-07 M/day,0.0029 day⁻¹,–
"CCCc1nccn1CCOC(=O)Cc1ccccc1Nc1c(Cl)cccc1Cl [DPX-1-0008, 2-(2-propyl-1H-imidazol-1-yl)ethyl 2-(2-(2,6-dichlorophenylamino)phenyl)acetate]",–,0.3 µg/mL,0.0007 mM,–,–,–,–
"O=C(Cc1ccccc1Nc1c(Cl)cccc1Cl)OCCCCCCn1ccnc1 [DPX-1-0009, 6-(1H-imidazol-1-yl)hexyl 2-(2-(2,6-dichlorophenylamino)phenyl)acetate]",–,< 0.3 µg/mL,<0.0007 mM,–,–,–,–
"CCCc1nccn1CCCCCCOC(=O)Cc1ccccc1Nc1c(Cl)cccc1Cl [DPX-1-0010, 6-(2-propyl-1H-imidazol-1-yl)hexyl 2-(2-(2,6-dichiorophenylamino)phenyl)acetate]",–,< 0.4 µg/mL,<0.0008 mM,–,–,–,–
"Cn1ccnc1CCOC(=O)Cc1ccccc1Nc1c(Cl)cccc1Cl [DPX-1-0011, 2-(1-methyl-1H-imidazol-2-yl)ethyl 2-(2((2,6-dichlorophenyl)amino)phenyl)acetate]",–,0.1 µg/mL,0.0002 mM,–,–,–,–
"O=C(Cc1ccccc1Nc1c(Cl)cccc1Cl)OCCOCCn1ccnc1-c1ccccc1 [DPX-1-0012, 2-(2-(2-phenyl-1H-imidazol-1-yl)ethoxy)ethyl 2-(2-((2,6-dichlorophenyl)-amino)phenyl)acetate]",–,< 0.3 µg/mL,<0.0006 mM,–,–,–,–
"COc1ccc2cc(C(C)C(=O)OCCc3ccc(N(C)C)cc3)ccc2c1 (stereo not drawn) [DPX-2-0001, 4-(dimethylamino)phenethyl 2-(6-methoxynaphthalen-2-yl)propanoate]",–,< 0.3 µg/mL,<0.0008 mM,–,–,–,–
"COc1ccc2cc(C(C)C(=O)OCCN(C)c3ccccc3)ccc2c1 (stereo not drawn) [DPX-2-0002, 2-(methyl(phenyl)amino)ethyl 2-(6-methoxynaphthalen-2-yl)propanoate]",–,< 0.2 µg/mL,<0.0006 mM,–,–,–,–
"COc1ccc2cc(C(C)C(=O)OCCCN(C)c3ccccc3)ccc2c1 (stereo not drawn) [DPX-2-0003, 3-(methyl(phenyl)amino)propyl 2-(6-methoxynaphthalen-2-yl)propanoate]",–,< 1 µg/mL,<0.003 mM,–,–,–,–
"COc1ccc2cc(C(C)C(=O)OCCc3ccccn3)ccc2c1 (stereo not drawn) [DPX-2-0004, 2-(pyridin-2-yl)ethyl 2-(6-methoxynaphthalen-2-yl)propanoate]",287 min,19 ± 1 µg/mL,0.052 ± 0.002 mM,21 days,1.7e-06 M/day,0.033 day⁻¹,–
"COc1ccc2cc(C(C)C(=O)OCCn3cnc4ccccc43)ccc2c1 (stereo not drawn) [DPX-2-0006, 2-(1H-benzo[d]imidazol-1-yl)ethyl 2-(6-methoxynaphthalen-2-yl)propanoate]",511 min,–,5 ± 1 μg/mL and 0.015 ± 0.002 mM,11 days,1e-06 M/day,0.066 day⁻¹,"solubility at 1 day ([4]; demineralized water acidified with HCl, 37 °C, pH 2.9, aqueous buffer, thermodynamic from solid, pH 2.9, 37° C., no DMA): 180 µg/mL"
"COc1ccc2cc(C(C)C(=O)OCCn3ccnc3-c3ccccc3)ccc2c1 (stereo not drawn) [DPX-2-0007, 2-(2-phenyl-1H-imidazol-1-yl)ethyl 2-(6-methoxynaphthalen-2-yl)propanoate]",62 min,16 ± 1 µM,7 ± 1 µg/mL,11 days,1e-06 M/day,0.065 day⁻¹,"solubility ([2]; 67 mM phosphate buffer (PBS), pH 7.4, aqueous buffer, thermodynamic from solid): 7 µg/mL; precipitation after addition to buffer [5]: a precipitation was immediately observed; solubility at 3 days ([4]; demineralized water, 37 °C, pH 3.4, water, thermodynamic from solid, pH 3.4, hydrochloride salt in demineralized water, 3 days): 6800 µg/mL; fold increase in solubility at pH 3.4 compared to buffer pH 7.4 (PBS) ([4]; pH 3.4 vs pH 7.4): 1000 fold"
"CC(C)Cc1ccc(C(C)C(=O)OCCc2ccccn2)cc1 (stereo not drawn) [DPX-3-0004, 2-(pyridin-2-yl)ethyl 2-(4-isobutylphenyl)propanoate]",755 min,15 ± 2 µg/mL,0.044 ± 0.004 mM,32 days,1e-06 M/day,0.022 day⁻¹,–
"CC(C)Cc1ccc(C(C)C(=O)OCCn2cnc3ccccc32)cc1 (stereo not drawn) [DPX-3-0006, 2-(1H-benzo[d]imidazol-1-yl)ethyl 2-(4-isobutylphenyl)propanoate]",–,4 ± 0.2 µg/mL,0.012 ± 0.001 mM,15 days,5.7e-07 M/day,0.048 day⁻¹,"stability on incubation in plasma ([1]; 80% human plasma, 37° C., incubation for 10 h): remained intact; t1/2 in plasma [1, 6]: stable"
"CC(C)Cc1ccc(C(C)C(=O)OCCn2ccnc2-c2ccccc2)cc1 (stereo not drawn) [DPX-3-0007, 2-(2-phenyl-1H-imidazol-1-yl)ethyl 2-(4-isobutylphenyl)propanoate]",–,1 µg/mL,0.002 mM,–,–,–,–
"CN(C)c1ccc(CCO)cc1 [IPU 1, 4-(hydroxyethyl)-N,N-dimethylaniline]",–,–,–,–,–,–,pKa (pKa value): ~5.2
